According to PubChem BioAssay (NCI):
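Compound exposure: 48 hours, 5 concentrations, 96-well plates. The concentration for full growth arrest is given as TGI.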

Assays:
Experiment in all cases: NCI tumour cell line growth inhibition, 48 h
[1] = system: SK-OV-3 ovarian
[2] = system: LOX IMVI melanoma
[3] = system: XF 498 CNS
[4] = system: SK-MEL-2 melanoma
[5] = system: CAKI-1 renal
[6] = system: SF-268 CNS
[7] = system: HCT-116 colon
[8] = system: CCRF-CEM leukemia
[9] = system: UACC-62 melanoma
[10] = system: DMS 114 small cell lung
[11] = system: M14 melanoma
[12] = system: DLD-1 colon
[13] = system: 786-0 renal
[14] = system: RXF 393 renal
[15] = system: SNB-78 CNS
[16] = system: EKVX NSCLC
[17] = system: HOP-62 NSCLC
[18] = system: A498 renal
[19] = system: NCI-H460 lung
[20] = system: LXFL 529 NSCLC
[21] = system: UACC-257 melanoma
[22] = system: OVCAR-8 ovarian
[23] = system: COLO 205 colon
[24] = system: SN12C renal
[25] = system: DMS 273 small cell lung
[26] = system: U251 CNS
[27] = system: KM20L2 colon
[28] = system: SNB-19 CNS
[29] = system: SW-620 colon
[30] = system: RXF-631 renal
[31] = system: MOLT-4 leukemia
[32] = system: MALME-3M melanoma
[33] = system: HCC-2998 colon
[34] = system: SK-MEL-5 melanoma
[35] = system: OVCAR-5 ovarian
[36] = system: A549 NSCLC
[37] = system: UO-31 renal
[38] = system: NCI-H23 lung
[39] = system: HT29 colon
[40] = system: K-562 leukemia
[41] = system: SNB-75 CNS
[42] = system: IGROV1 ovarian
[43] = system: OVCAR-4 ovarian
[44] = system: HCT-15 colon
[45] = system: OVCAR-3 ovarian
[46] = system: SF-295 CNS
[47] = system: RPMI-8226 leukemia
[48] = system: HL-60(TB) leukemia
[49] = system: TK-10 renal
[50] = system: ACHN renal
[51] = system: SK-MEL-28 melanoma
[52] = system: M19-MEL melanoma
[53] = system: SF-539 CNS
[54] = system: KM12 colon
[55] = system: NCI-H226 lung
[56] = system: SR leukemia
[57] = system: HOP-92 NSCLC
[58] = system: NCI-H522 lung

`CCOP(=O)(OCC)C1CC(C)OC1=O` (centres undefined) gave a TGI [1] of over 100 µM, a TGI [2] of over 100 µM and a TGI [3] of over 100 µM. The TGI [4] was over 100 µM, the TGI [5] was over 100 µM and the TGI [6] was over 100 µM. It also gave a TGI [7] of over 100 µM, a TGI [8] of over 100 µM and a TGI [9] of over 100 µM. For the same molecule, the TGI [10] was over 100 µM, the TGI [11] was over 100 µM and the TGI [12] was over 100 µM. For the same molecule, the TGI [13] was over 100 µM, the TGI [14] was over 100 µM and the TGI [15] was over 100 µM. For the same molecule, the TGI [16] was over 100 µM, the TGI [17] was over 100 µM and the TGI [18] was over 100 µM. The TGI [19] was over 100 µM, the TGI [20] was over 100 µM and the TGI [21] was over 100 µM. The TGI [22] was over 100 µM, the TGI [23] was over 100 µM and the TGI [24] was over 100 µM. It also gave a TGI [25] of over 100 µM, a TGI [26] of over 100 µM and a TGI [27] of over 100 µM. The TGI [28] was over 100 µM, the TGI [29] was over 100 µM and the TGI [30] was over 100 µM. The TGI [31] was over 100 µM, the TGI [32] was over 100 µM and the TGI [33] was over 100 µM. The TGI [34] was over 100 µM, the TGI [35] was over 100 µM and the TGI [36] was over 100 µM. For the same molecule, the TGI [37] was over 100 µM, the TGI [38] was over 100 µM and the TGI [39] was over 100 µM. It also gave a TGI [40] of over 100 µM, a TGI [41] of over 100 µM and a TGI [42] of over 100 µM. For the same molecule, the TGI [43] was over 100 µM, the TGI [44] was over 100 µM and the TGI [45] was over 100 µM. The TGI [46] was over 100 µM, the TGI [47] was over 100 µM and the TGI [48] was over 100 µM. For the same molecule, the TGI [49] was over 100 µM, the TGI [50] was over 100 µM and the TGI [51] was over 100 µM. It also gave a TGI [52] of over 100 µM, a TGI [53] of over 100 µM and a TGI [54] of over 100 µM.

With `O=C(CC1C(=O)Nc2ccccc2S1(=O)=O)Nc1cc(Cl)ccc1Cl` (centres undefined) the TGI [2] was 18.1 µM, the TGI [3] was 27.6 µM and the TGI [4] was 35.4 µM. The TGI [5] was 32 µM, the TGI [6] was 24.4 µM and the TGI [7] was 28 µM. For the same molecule, the TGI [8] was 62.5 µM, the TGI [9] was 33.7 µM and the TGI [10] was 27 µM. It also gave a TGI [11] of 30.6 µM, a TGI [12] of 33.4 µM and a TGI [55] of 35.8 µM. The TGI [13] was 20.7 µM, the TGI [14] was 32.7 µM and the TGI [15] was 33.6 µM. It also gave a TGI [16] of 30 µM, a TGI [56] of 24.3 µM and a TGI [18] of 31.4 µM. For the same molecule, the TGI [19] was 30.3 µM, the TGI [20] was 27.1 µM and the TGI [21] was over 100 µM. For the same molecule, the TGI [22] was 41.9 µM, the TGI [24] was 30.2 µM and the TGI [26] was 22.6 µM. It also gave a TGI [27] of 32.6 µM, a TGI [28] of 29.8 µM and a TGI [29] of 40.2 µM. The TGI [30] was 88.9 µM, the TGI [57] was 30.4 µM and the TGI [31] was 23.2 µM. It also gave a TGI [32] of 40.6 µM, a TGI [33] of 36.2 µM and a TGI [34] of 30.3 µM. It also gave a TGI [35] of 71.1 µM, a TGI [36] of 33.1 µM and a TGI [37] of 31 µM. It also gave a TGI [38] of 40.4 µM, a TGI [39] of 34.3 µM and a TGI [40] of 42 µM. The TGI [41] was 31 µM, the TGI [42] was 26.9 µM and the TGI [43] was 32.8 µM. For the same molecule, the TGI [44] was 27.5 µM, the TGI [45] was 29 µM and the TGI [46] was 34.4 µM. The TGI [47] was 13.4 µM, the TGI [48] was 35.3 µM and the TGI [49] was 39.9 µM. For the same molecule, the TGI [50] was 35.7 µM, the TGI [51] was 41 µM and the TGI [52] was 34.1 µM. It also gave a TGI [53] of 7.23 µM.

In the case of `Cc1cc2c(c3c1c1ccccc1n3C)C(=O)c1ccccc1C2=O`, the TGI [2] was over 100 µM, the TGI [3] was over 100 µM and the TGI [4] was over 100 µM. The TGI [6] was over 100 µM, the TGI [7] was over 100 µM and the TGI [8] was over 100 µM. It also gave a TGI [9] of over 100 µM, a TGI [10] of over 100 µM and a TGI [11] of over 100 µM. For the same molecule, the TGI [12] was over 100 µM, the TGI [13] was over 100 µM and the TGI [14] was over 100 µM. It also gave a TGI [15] of over 100 µM, a TGI [16] of over 100 µM and a TGI [58] of over 100 µM. For the same molecule, the TGI [17] was over 100 µM, the TGI [19] was over 100 µM and the TGI [20] was over 100 µM. The TGI [21] was over 100 µM, the TGI [22] was over 100 µM and the TGI [23] was over 100 µM. The TGI [24] was over 100 µM, the TGI [25] was over 100 µM and the TGI [26] was over 100 µM. The TGI [27] was over 100 µM, the TGI [28] was over 100 µM and the TGI [29] was over 100 µM. For the same molecule, the TGI [30] was over 100 µM, the TGI [57] was over 100 µM and the TGI [31] was over 100 µM. For the same molecule, the TGI [32] was over 100 µM, the TGI [33] was over 100 µM and the TGI [34] was over 100 µM. For the same molecule, the TGI [35] was over 100 µM, the TGI [36] was over 100 µM and the TGI [37] was over 100 µM. The TGI [38] was over 100 µM, the TGI [39] was over 100 µM and the TGI [40] was over 100 µM. The TGI [41] was over 100 µM, the TGI [42] was over 100 µM and the TGI [43] was over 100 µM. For the same molecule, the TGI [44] was over 100 µM, the TGI [45] was over 100 µM and the TGI [46] was over 100 µM. It also gave a TGI [47] of over 100 µM, a TGI [48] of over 100 µM and a TGI [49] of over 100 µM. For the same molecule, the TGI [50] was over 100 µM, the TGI [51] was over 100 µM and the TGI [52] was over 100 µM. The TGI [53] was over 100 µM and the TGI [54] was over 100 µM.
